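Tested at 5 concentrations; 48 h exposure; 96-well plates; endpoints linearly interpolated, else capped at highest concentration. TGI denotes the concentration required for complete inhibition of growth.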
Experiments:
Experiment in all cases: DTP human tumour cell line panel, 48 h
MDA-MB-231 breast = system: MDA-MB-231 breast
HCC-2998 colon = system: HCC-2998 colon
NCI/ADR-RES ovarian = system: NCI/ADR-RES ovarian
HOP-92 NSCLC = system: HOP-92 NSCLC
A498 renal = system: A498 renal
SF-268 CNS = system: SF-268 CNS
CAKI-1 renal = system: CAKI-1 renal
MALME-3M melanoma = system: MALME-3M melanoma
UACC-62 melanoma = system: UACC-62 melanoma
A549 NSCLC = system: A549 NSCLC
HOP-62 NSCLC = system: HOP-62 NSCLC
786-0 renal = system: 786-0 renal
COLO 205 colon = system: COLO 205 colon
HL-60(TB) leukemia = system: HL-60(TB) leukemia
SNB-75 CNS = system: SNB-75 CNS
SNB-19 CNS = system: SNB-19 CNS
RXF 393 renal = system: RXF 393 renal
NCI-H460 lung = system: NCI-H460 lung
HS 578T breast = system: HS 578T breast
SR leukemia = system: SR leukemia
PC-3 prostate = system: PC-3 prostate
HCT-116 colon = system: HCT-116 colon
SK-MEL-2 melanoma = system: SK-MEL-2 melanoma
TK-10 renal = system: TK-10 renal
IGROV1 ovarian = system: IGROV1 ovarian
NCI-H522 lung = system: NCI-H522 lung
SW-620 colon = system: SW-620 colon
MDA-MB-435 = system: MDA-MB-435
OVCAR-4 ovarian = system: OVCAR-4 ovarian
UACC-257 melanoma = system: UACC-257 melanoma
HCT-15 colon = system: HCT-15 colon
KM12 colon = system: KM12 colon
OVCAR-3 ovarian = system: OVCAR-3 ovarian
ACHN renal = system: ACHN renal
EKVX NSCLC = system: EKVX NSCLC
MDA-N = system: MDA-N
CCRF-CEM leukemia = system: CCRF-CEM leukemia
NCI-H23 lung = system: NCI-H23 lung
K-562 leukemia = system: K-562 leukemia
OVCAR-8 ovarian = system: OVCAR-8 ovarian
MCF7 breast = system: MCF7 breast
LOX IMVI melanoma = system: LOX IMVI melanoma
SF-295 CNS = system: SF-295 CNS
BT-549 breast = system: BT-549 breast
M14 melanoma = system: M14 melanoma
UO-31 renal = system: UO-31 renal
HT29 colon = system: HT29 colon
SK-MEL-5 melanoma = system: SK-MEL-5 melanoma
U251 CNS = system: U251 CNS
SN12C renal = system: SN12C renal
DU-145 prostate = system: DU-145 prostate
T-47D breast = system: T-47D breast
SF-539 CNS = system: SF-539 CNS
NCI-H226 lung = system: NCI-H226 lung
MOLT-4 leukemia = system: MOLT-4 leukemia
SK-OV-3 ovarian = system: SK-OV-3 ovarian
SK-MEL-28 melanoma = system: SK-MEL-28 melanoma
OVCAR-5 ovarian = system: OVCAR-5 ovarian
RPMI-8226 leukemia = system: RPMI-8226 leukemia

## OC1(c2ccccc2)CSc2ncnn21 (centres undefined)
MDA-MB-231 breast
  TGI: > 100 µM
HCC-2998 colon
  TGI: > 100 µM
NCI/ADR-RES ovarian
  TGI: > 100 µM
HOP-92 NSCLC
  TGI: > 100 µM
A498 renal
  TGI: > 100 µM
SF-268 CNS
  TGI: > 100 µM
CAKI-1 renal
  TGI: > 100 µM
MALME-3M melanoma
  TGI: > 100 µM
UACC-62 melanoma
  TGI: > 100 µM
A549 NSCLC
  TGI: > 100 µM
HOP-62 NSCLC
  TGI: > 100 µM
786-0 renal
  TGI: > 100 µM
COLO 205 colon
  TGI: > 100 µM
HL-60(TB) leukemia
  TGI: > 100 µM
SNB-75 CNS
  TGI: > 100 µM
SNB-19 CNS
  TGI: > 100 µM
RXF 393 renal
  TGI: > 100 µM
NCI-H460 lung
  TGI: > 100 µM
HS 578T breast
  TGI: > 100 µM
SR leukemia
  TGI: > 100 µM
PC-3 prostate
  TGI: > 100 µM
HCT-116 colon
  TGI: > 100 µM
SK-MEL-2 melanoma
  TGI: > 100 µM
TK-10 renal
  TGI: > 100 µM
IGROV1 ovarian
  TGI: > 100 µM
NCI-H522 lung
  TGI: > 100 µM
SW-620 colon
  TGI: > 100 µM
MDA-MB-435
  TGI: > 100 µM
OVCAR-4 ovarian
  TGI: > 100 µM
UACC-257 melanoma
  TGI: > 100 µM
HCT-15 colon
  TGI: > 100 µM
KM12 colon
  TGI: > 100 µM
OVCAR-3 ovarian
  TGI: > 100 µM
ACHN renal
  TGI: > 100 µM
EKVX NSCLC
  TGI: > 100 µM
MDA-N
  TGI: > 100 µM
CCRF-CEM leukemia
  TGI: > 100 µM
NCI-H23 lung
  TGI: > 100 µM
K-562 leukemia
  TGI: > 100 µM
OVCAR-8 ovarian
  TGI: > 100 µM
MCF7 breast
  TGI: > 100 µM
LOX IMVI melanoma
  TGI: > 100 µM
SF-295 CNS
  TGI: > 100 µM
BT-549 breast
  TGI: > 100 µM
M14 melanoma
  TGI: > 100 µM
UO-31 renal
  TGI: > 100 µM
HT29 colon
  TGI: > 100 µM
SK-MEL-5 melanoma
  TGI: > 100 µM
U251 CNS
  TGI: > 100 µM
SN12C renal
  TGI: > 100 µM
DU-145 prostate
  TGI: > 100 µM
T-47D breast
  TGI: > 100 µM
SF-539 CNS
  TGI: > 100 µM
NCI-H226 lung
  TGI: > 100 µM
MOLT-4 leukemia
  TGI: > 100 µM
SK-OV-3 ovarian
  TGI: > 100 µM

## O=C(N/N=C\c1c(O)ccc2ccccc12)c1ccncc1
MDA-MB-231 breast
  TGI: > 5.71 µM
HCC-2998 colon
  TGI: > 25 µM
NCI/ADR-RES ovarian
  TGI: > 8.64 µM
HOP-92 NSCLC
  TGI: 18.8 µM
A498 renal
  TGI: > 15.6 µM
CAKI-1 renal
  TGI: > 4.94 µM
MALME-3M melanoma
  TGI: > 7.77 µM
UACC-62 melanoma
  TGI: 2.04 µM
A549 NSCLC
  TGI: > 25 µM
HOP-62 NSCLC
  TGI: > 25 µM
786-0 renal
  TGI: > 25 µM
COLO 205 colon
  TGI: > 14.2 µM
HL-60(TB) leukemia
  TGI: 5.91 µM
SNB-75 CNS
  TGI: > 25 µM
SNB-19 CNS
  TGI: > 25 µM
RXF 393 renal
  TGI: > 8.59 µM
NCI-H460 lung
  TGI: > 6.82 µM
HS 578T breast
  TGI: > 25 µM
SR leukemia
  TGI: > 25 µM
PC-3 prostate
  TGI: > 25 µM
HCT-116 colon
  TGI: > 25 µM
SK-MEL-2 melanoma
  TGI: > 9.41 µM
TK-10 renal
  TGI: > 25 µM
IGROV1 ovarian
  TGI: 1.84 µM
NCI-H522 lung
  TGI: > 7.49 µM
SW-620 colon
  TGI: > 25 µM
MDA-MB-435
  TGI: > 25 µM
OVCAR-4 ovarian
  TGI: > 22.2 µM
UACC-257 melanoma
  TGI: > 25 µM
HCT-15 colon
  TGI: > 25 µM
KM12 colon
  TGI: > 25 µM
OVCAR-3 ovarian
  TGI: > 25 µM
ACHN renal
  TGI: > 13.5 µM
EKVX NSCLC
  TGI: > 25 µM
MDA-N
  TGI: > 25 µM
NCI-H23 lung
  TGI: > 25 µM
OVCAR-8 ovarian
  TGI: > 25 µM
MCF7 breast
  TGI: > 7.75 µM
LOX IMVI melanoma
  TGI: > 25 µM
SF-295 CNS
  TGI: > 25 µM
BT-549 breast
  TGI: > 8.19 µM
SK-MEL-28 melanoma
  TGI: > 25 µM
M14 melanoma
  TGI: > 19.4 µM
UO-31 renal
  TGI: 3.95 µM
HT29 colon
  TGI: > 25 µM
SK-MEL-5 melanoma
  TGI: > 9.41 µM
U251 CNS
  TGI: > 25 µM
SN12C renal
  TGI: > 5.5 µM
DU-145 prostate
  TGI: > 25 µM
T-47D breast
  TGI: > 25 µM
SF-539 CNS
  TGI: 8.2 µM
NCI-H226 lung
  TGI: 2.67 µM
OVCAR-5 ovarian
  TGI: > 25 µM
RPMI-8226 leukemia
  TGI: > 5.06 µM
SK-OV-3 ovarian
  TGI: 24.3 µM

## O=c1[nH]cnc2[nH]cc(CN3CCCCC3)c12
MDA-MB-231 breast
  TGI: > 100 µM
NCI/ADR-RES ovarian
  TGI: > 100 µM
HOP-92 NSCLC
  TGI: > 100 µM
A498 renal
  TGI: > 100 µM
SF-268 CNS
  TGI: > 100 µM
CAKI-1 renal
  TGI: > 100 µM
MALME-3M melanoma
  TGI: > 100 µM
UACC-62 melanoma
  TGI: > 100 µM
A549 NSCLC
  TGI: > 100 µM
HOP-62 NSCLC
  TGI: > 100 µM
786-0 renal
  TGI: > 100 µM
COLO 205 colon
  TGI: > 100 µM
HL-60(TB) leukemia
  TGI: 38.2 µM
SNB-75 CNS
  TGI: > 100 µM
SNB-19 CNS
  TGI: > 100 µM
RXF 393 renal
  TGI: > 100 µM
NCI-H460 lung
  TGI: 43.8 µM
HS 578T breast
  TGI: > 100 µM
SR leukemia
  TGI: > 100 µM
PC-3 prostate
  TGI: > 100 µM
HCT-116 colon
  TGI: 30.6 µM
SK-MEL-2 melanoma
  TGI: > 100 µM
TK-10 renal
  TGI: > 100 µM
IGROV1 ovarian
  TGI: > 100 µM
NCI-H522 lung
  TGI: > 100 µM
SW-620 colon
  TGI: > 100 µM
MDA-MB-435
  TGI: > 100 µM
OVCAR-4 ovarian
  TGI: > 100 µM
UACC-257 melanoma
  TGI: 87.3 µM
HCT-15 colon
  TGI: > 100 µM
KM12 colon
  TGI: > 100 µM
OVCAR-3 ovarian
  TGI: > 100 µM
ACHN renal
  TGI: > 100 µM
EKVX NSCLC
  TGI: > 100 µM
MDA-N
  TGI: > 100 µM
CCRF-CEM leukemia
  TGI: 36.2 µM
NCI-H23 lung
  TGI: > 100 µM
K-562 leukemia
  TGI: > 100 µM
OVCAR-8 ovarian
  TGI: > 100 µM
MCF7 breast
  TGI: > 100 µM
LOX IMVI melanoma
  TGI: > 100 µM
SF-295 CNS
  TGI: > 100 µM
BT-549 breast
  TGI: > 100 µM
SK-MEL-28 melanoma
  TGI: > 100 µM
M14 melanoma
  TGI: > 100 µM
UO-31 renal
  TGI: > 100 µM
HT29 colon
  TGI: > 100 µM
SK-MEL-5 melanoma
  TGI: > 100 µM
U251 CNS
  TGI: > 100 µM
SN12C renal
  TGI: > 100 µM
DU-145 prostate
  TGI: > 100 µM
T-47D breast
  TGI: > 100 µM
SF-539 CNS
  TGI: > 100 µM
NCI-H226 lung
  TGI: > 100 µM
MOLT-4 leukemia
  TGI: > 100 µM
OVCAR-5 ovarian
  TGI: > 100 µM
RPMI-8226 leukemia
  TGI: 87.2 µM
SK-OV-3 ovarian
  TGI: > 100 µM

Reference: PubChem BioAssay (NCI)
